Measured values taken from paper PMC11881906, “Development of xanthone derivatives as effective broad-spectrum antimicrobials: Disrupting cell wall and inhibiting DNA synthesis” (Science Advances, 2025).
Like-named read-outs stand apart in the source and are kept apart here.

Legend:
[1] = Plasma pharmacokinetic study; assay type: in vivo, CD-1 mice; conditions: for Mean plasma concentration: LLOQ=10 ng/mL; for bioavailability: dose-normalised AUCINF, read-out: bioavailability (F)
Method: Mouse plasma PK studies were performed at Shanghai Ruizhi Chemical Research Co. Ltd. All experiments related to animals were conducted in compliance with the ethical guidelines approved by the Institutional Animal Care and Use Committee (IACUC) of the Shanghai Ruizhi Chemical Research Co. Ltd. Male CD-1 mice (6 to 8 weeks) were treated with the corresponding dose of drugs formulated in 5% glucose solution (D5W) delivered via intravenous injection via tail vein, intraperitoneal injection, or subcutaneous injection. Following administration, approximately 110 μl of blood was taken via facial vein […] at 0.083, 0.25, 0.5, 1, 2, 4, 8, and 24 hours into K2EDTA tubes. Blood samples were placed on ice and centrifuged to obtain plasma samples (2000g, 5 min under 4°C). Plasma samples were stored at approximately −70°C until analysis. The XT17 concentration in plasma PK studies was measured by liquid chromatography–tandem mass spectrometry (LC-MS/MS) assay using an LC-MS/MS-22 (Triple Quad 6500) instrument. Plasma concentrations versus time data and PK parameters were estimated from noncompartmental analysis using WinNonlin 8.2.

E. coli ATCC 25922 = test: RNA-seq transcriptome response; assay type: cell-based, Escherichia coli; conditions: 4× MIC, 2 hours
Method: After exposure, 1-ml aliquots of cells were immediately pelleted at 4°C by centrifugation for 2 min at 2000 rpm. The supernatants were removed and immediately frozen in liquid nitrogen. The samples were stored at −80°C for later total RNA isolation. Total RNA was extracted using the bacterial RNA kit (Omega Bio-Tek, USA) according to the manufacturer’s instructions. The RNA integrity number values were obtained to assess RNA quality using an Agilent Genomics 2200 Tape Station instrument.
A total amount of 2 to 5 ng of the RNA per sample was executed as the input material to construct each cDNA library for RNA-seq using the NEBNext Ultra Directional RNA Library prep kit from Illumina. The quality of the resulting libraries was checked using Agilent High Sensitivity DNA chips to ensure proper library size distribution and the absence of small adapters.
Read mapping was aligned using Bowtie2 ([74]). HTSeq v0.6.1 was used for quantification of expression levels ([75]). DESeq2 on the R package (v1.12.4) was used to calculate DEGs. Differential expression was computed using edgeR: exactTest for each treatment versus the untreated control ([76]). The E. coli database used for mapping was GCF_017357505.1_ASM1735750v1_genomic.fna. Both the GO and KEGG (KEGG Ortholog database) enrichment analyses were done with the Fisher’s exact test. All P values were adjusted with the Benjamini-Hochberg procedure to generate false discovery rates (adjusted P values). GO enrichment analysis was carried out using the clusterProfiler package on the R platform ([77]). KEGG pathway mapping and figure generation were performed with the PathView website ([78]). COG of protein databases were searched with an E value of 1e^-5. For hierarchal clustering analysis of gene expression, the gene expression levels were normalized to z scores of log10 (FPKM + 1), where FPKM is fragments per kilobase per million. For hierarchal clustering analysis of the regulation of transcription factors, the unweighted pair group method with arithmetic mean (UPGMA) method was used as the clustering method. […] Volcano plots were generated by plot_volcano from soothsayer (https://github.com/jolespin/soothsayer) in Python v.3.6.6. Directed networks were constructed and plotted using NetworkX and Matplotlib Python packages, respectively. Hierarchical clustering analysis and heatmap calculation were performed with the pheatmap package on the R platform. The umap package on the R platform was used for uniform manifold approximation and projection (UMAP) analysis of FPKM vectors of each transcriptome. The figures were created via the ggplot2 package ([79]).

[2] = male, CD-1, mouse, plasma, ip, 20 mg/kg, ip 20 mg/kg
[3] = male, CD-1, mouse, plasma, iv, 5 mg/kg, IV 5 mg/kg
[4] = male, CD-1, mouse, plasma, sc, 40 mg/kg, sc 40 mg/kg
[5] = male, CD-1, mouse, plasma, IP 20 mg/kg
[6] = male, CD-1, mouse, plasma, IV 5 mg/kg
[7] = male, CD-1, mouse, plasma, SC 40 mg/kg

## CC(C)=CCOc1cc(OCCCNC(=N)N)cc2oc3cc(OCCCNC(=N)N)ccc3c(=O)c12 [XT17]
[1]; IP 20 mg/kg
  MRTIast: 1.08 h
[1]; IP 20 mg/kg, 24 hr
  Mean plasma concentration: BQL
[1]; IV 5 mg/kg, 8 hr
  Mean plasma concentration: BQL
[1]; IV 5 mg/kg, 24 hr
  Mean plasma concentration: BQL
[1]; SC 40 mg/kg
  MRTIast: 5.54 h
[1]; iv single dose 5 mg/kg
  time blood concentrations maintained above MICs: more than 4 hours
[1]; male, CD-1, mouse, plasma, intraperitoneal, ip 20 mg/kg vs iv 5 mg/kg
  bioavailability: 69.7%
[1]; male, CD-1, mouse, plasma, ip, 20 mg/kg, IP 20 mg/kg
  Cmax: 18400 ng/mL
[1]; [2]
  Cmax: 18400 ng/mL
  half-life: 1.02 h
[1]; [3]
  clearance: 9.68 mL/min/kg
  half-life: 0.478 h
[1]; male, CD-1, mouse, plasma, iv, 5 mg/kg, iv 5 mg/kg
  half-life: 0.48 h
[1]; male, CD-1, mouse, plasma, iv, 5 mg/kg, iv 5 mg/kg, for bolus iv Cmax = C0
  Cmax: 20300 ng/mL
[1]; male, CD-1, mouse, plasma, sc, 40 mg/kg, SC 40 mg/kg
  Cmax: 8680 ng/mL
[1]; [4]
  Cmax: 8680 ng/mL
  half-life: 4.68 h
[1]; male, CD-1, mouse, plasma, subcutaneous, sc 40 mg/kg vs iv 5 mg/kg
  bioavailability: 87.3%
[1]; [5]
  AUC(0-inf): 24000 ng·h/mL
  AUC(0-t): 23900 ng·h/mL
  MRT inf: 1.13 h
  Tmax: 0.25 h
  concentration at 0.083 h: 17500 ng/mL
  concentration at 0.25 h: 18400 ng/mL
  concentration at 0.5 h: 14100 ng/mL
  concentration at 1 h: 9190 ng/mL
  concentration at 2 h: 2770 ng/mL
  concentration at 4 h: 452 ng/mL
[1]; male, CD-1, mouse, plasma, IP 20 mg/kg, 8 hr
  concentration at 8 h: 90.1 ng/mL
[1]; [6]
  AUC(0-inf): 8610 ng·h/mL
  AUC(0-t): 8590 ng·h/mL
  MRT inf: 0.42 h
  MRT last: 0.412 h
  concentration at 0.083 h: 20300 ng/mL
  concentration at 0.25 h: 7360 ng/mL
  concentration at 0.5 h: 3630 ng/mL
  concentration at 1 h: 1770 ng/mL
  concentration at 2 h: 282 ng/mL
  concentration at 4 h: 23.3 ng/mL
[1]; male, CD-1, mouse, plasma, IV 5 mg/kg, read-out: Vss
  Vd: 0.244 L/kg
[1]; [7]
  AUC(0-inf): 60100 ng·h/mL
  AUC(0-t): 58800 ng·h/mL
  MRT inf: 6.07 h
  Tmax: 1 h
  concentration at 0.083 h: 7730 ng/mL
  concentration at 0.25 h: 6690 ng/mL
  concentration at 0.5 h: 7340 ng/mL
  concentration at 1 h: 8680 ng/mL
  concentration at 2 h: 4620 ng/mL
  concentration at 4 h: 3560 ng/mL
[1]; male, CD-1, mouse, plasma, SC 40 mg/kg, 8 hr
  concentration at 8 h: 2810 ng/mL
[1]; male, CD-1, mouse, plasma, SC 40 mg/kg, 24 hr
  concentration at 24 h: 188 ng/mL
[1]; sc single dose 40 mg/kg
  time blood concentrations maintained above MICs: more than 8 hours
E. coli ATCC 25922
  genes expressed: 4617 genes
E. coli ATCC 25922; vs untreated
  Log2FC clbN (colibactin non-ribosomal peptide synthetase ClbN): -2.7305
  Log2FC cspE (transcription antiterminator/RNA stability regulator CspE): -4.5456
  Log2FC dnaE (DNA polymerase III subunit alpha): 2.4033
  Log2FC dnaN (DNA polymerase III subunit beta): 2.4370
  Log2FC dnaQ (DNA polymerase III subunit epsilon): 2.6769
  Log2FC dnaT (primosomal protein DnaT): 1.8873
  Log2FC dnaX (DNA polymerase III subunit gamma/tau): 1.3272
  Log2FC gyrA (DNA topoisomerase (ATP-hydrolyzing) subunit A): 2.7733
  Log2FC gyrB (DNA topoisomerase (ATP-hydrolyzing) subunit B): 2.8529
  Log2FC holB (DNA polymerase III subunit delta'): 3.5242
  Log2FC holC (DNA polymerase III subunit chi): 1.8432
  Log2FC holD (DNA polymerase III subunit psi): 2.6144
  Log2FC parC (DNA topoisomerase IV subunit A): 2.5193
  Log2FC parE (DNA topoisomerase IV subunit B): 2.3205
  Log2FC priA (primosomal protein N'): 3.3285
  Log2FC priB (primosomal replication protein N): 5.8981
  Log2FC priC (primosomal replication protein N''): 2.6334
  Log2FC recA (recombinase RecA): 5.7854
  Log2FC recB (exodeoxyribonuclease V subunit beta): 2.0328
  Log2FC recC (exodeoxyribonuclease V subunit gamma): 2.4556
  Log2FC recF (DNA replication/repair protein RecF): 1.6106
  Log2FC recG (ATP-dependent DNA helicase RecG): 1.6673
  Log2FC recJ (single-stranded-DNA-specific exonuclease RecJ): 4.2947
  Log2FC recO (DNA repair protein RecO): 2.8669
  Log2FC recR (recombination mediator RecR): 2.2758
  Log2FC ruvA (Holliday junction branch migration protein RuvA): 3.9191
  Log2FC ruvB (Holliday junction branch migration DNA helicase RuvB): 4.1938
  Log2FC ruvC (crossover junction endodeoxyribonuclease RuvC): 2.7878
  Log2FC ssb1 (single-stranded DNA-binding protein SSB1): 3.2652
  down-regulated genes: 348 genes
  up-regulated genes: 2885 genes
E. coli ATCC 25922; vs untreated, P < 0.05, absolute log2 fold change > 1
  differentially expressed genes: 3233 genes
